Tests used:
E. coli ATCC 25922 [1] = assay: Qualitative susceptibility by glucose consumption, bacteria from plated cultures (Example 2, Table 6); type: cell-based
Protocol: (§1) If the susceptibility score is a qualitative susceptibility score classifying the microorganism as "susceptible", or "non-susceptible" to an antibiotic agent the answer could be given in as little as 1 hour. Bacteria from plated cultures were suspended in cation adjusted Mueller-Hinton broth (SVA, Uppsala, Sweden) supplemented with glucose. Consequently, the concentration of microorgansims was typically two orders of magnitude higher as compared to Example 1. […] The tested microorganisms was one strain of E. faecium, two strains of E.coli and one S. aureus. Table 6. "--" denotes no measurement

E. coli 17 = assay: as above; type: cell-based
Protocol: as §1

E. faecium [2] = assay: as above; type: cell-based
Protocol: as §1

S. aureus = assay: as above; type: cell-based
Protocol: If the susceptibility score is a qualitative susceptibility score classifying the microorganism as "susceptible", or "non-susceptible" to an antibiotic agent the answer could be given in as little as 1 hour.
Bacteria from plated cultures were suspended in cation adjusted Mueller-Hinton broth (SVA, Uppsala, Sweden) supplemented with glucose. Consequently, the concentration of microorgansims was typically two orders of magnitude higher as compared to Example 1. […] The tested microorganisms was one strain of E. faecium, two strains of E.coli and one S. aureus. Table 6. "--" denotes no measurement

E. faecium [3] = assay: Qualitative susceptibility by glucose consumption, directly from positive BC-bottles (Example 2, Table 7); type: cell-based
Protocol: With slightly lower microbe concentrations e.g. directly from positive BC-bottles (^~10^9 CFU/ml) the results are shown at least within 2 hours, where E. coli ATCC 25922 is classified as susceptible and E. faecium is non-susceptible. Table 7. "--" denotes no measurement

[4] = test system: Staphylococcus aureus (ATCC 29213); assay: Antibiotic susceptibility by glucose consumption in culture medium, blood culture bottle inoculum (Example 1); type: cell-based; conditions: for Glucose concentration t=0: 0 minutes; for Glucose concentration t=60: 60 minutes; for Glucose concentration t=120: 120 minutes; for Glucose concentration t=180: 180 minutes; for Glucose concentration t=240: 240 minutes; for dC/dT: rate of change in glucose concentration;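 as to dC/dT: rate calculated between the 60 and 180 min readings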
In short: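 Bacteria grown in blood culture bottles until positive, diluted 1:100 into cation-adjusted Mueller-Hinton broth with glucose at 1.0 mg/mL plus antibiotic (µg/mL). Glucose read by glucometer at 0–240 min.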

[5] = test system: Enterococcus faecalis ATCC 29212; conditions: E.faecalis, cited from earlier work
[6] = test system: Escherichia coli ATCC 25922; conditions: E.coli, cited from earlier work
E. coli ATCC 25922 [7] = assay: Qualitative susceptibility by glucose consumption, directly from positive BC-bottles (Example 2, Table 7); type: cell-based
[8] = test system: Staphylococcus aureus ATCC 29213; conditions: S.aureus, cited from earlier work
[9] = range obtained by EUCAST from ISO 20776-1: 2006
[10] = reference MIC value, EUCAST QC tables Version 7.0, 2017

In the case of Gentamicin, the Qualitative susceptibility score (E. coli ATCC 25922 [1]; E. coli ATCC 25922, 256 µg/mL, plated cultures, Table 6) is reported as “susceptible”, the “Glucose concentration t=15” value (E. coli ATCC 25922 [1]; [Ab] 256 µg/mL, t=15) is reported as 156 and the “Glucose concentration t=30” value (E. coli ATCC 25922 [1]; [Ab] 256 µg/mL, t=30) is reported as 155. For the same substance, the “Glucose concentration t=45” value (E. coli ATCC 25922 [1]; [Ab] 256 µg/mL, t=45) was 136, the Qualitative susceptibility score (E. coli 17; E. coli 17, 256 µg/mL, plated cultures, Table 6) was “susceptible” and the “Glucose concentration t=15” value (E. coli 17; [Ab] 256 µg/mL, t=15) was 131. The “Glucose concentration t=30” value (E. coli 17; [Ab] 256 µg/mL, t=30) was 126, the “Glucose concentration t=45” value (E. coli 17; [Ab] 256 µg/mL, t=45) was 123 and the Qualitative susceptibility score (E. faecium [2]; E. faecium, 256 µg/mL, plated cultures, Table 6) was “non-susceptible”. The “Glucose concentration t=0” value (E. faecium [2]; [Ab] 256 µg/mL, t=0) was 79, the “Glucose concentration t=15” value (E. faecium [2]; [Ab] 256 µg/mL, t=15) was 47 and the Qualitative susceptibility score (S. aureus; S. aureus, 256 µg/mL, plated cultures, Table 6) was “susceptible”. The “Glucose concentration t=15” value (S. aureus; [Ab] 256 µg/mL, t=15) was 137, the “Glucose concentration t=30” value (S. aureus; [Ab] 256 µg/mL, t=30) was 139 and the “Glucose concentration t=45” value (S. aureus; [Ab] 256 µg/mL, t=45) was 131. The Qualitative susceptibility score (E. faecium [3]; E. faecium, 256 µg/mL, from positive BC-bottles, within 2 hours, Table 7) was “non-susceptible”, the “Glucose concentration t=0” value (E. faecium [3]; [Ab] 256 µg/mL, t=0) was 144 and the “Glucose concentration t=45” value (E. faecium [3]; [Ab] 256 µg/mL, t=45) was 105. The “Glucose concentration t=60” value (E. faecium [3]; [Ab] 256 µg/mL, t=60) was 77, the “Glucose concentration t=75” value (E. faecium [3]; [Ab] 256 µg/mL, t=75) was 47 and the “MIC Measured” value ([4]; S.aureus, 80% threshold of rate of change vs reference, between 60 and 180 minutes, obtained in 4 hours) was 0.25 µg/mL. The “F=the rate of change in glucose concentration in relation to the reference” value (“F=the rate of change” below) ([4]; [Ab] 0,5 µg/mL) was 57%, the “Glucose concentration t=0” value ([4]; [Ab] 0,5 µg/mL) was 143 and the “Glucose concentration t=60” value ([4]; [Ab] 0,5 µg/mL) was 154. The “Glucose concentration t=120” value ([4]; [Ab] 0,5 µg/mL) was 137, the “Glucose concentration t=180” value ([4]; [Ab] 0,5 µg/mL) was 116 and the “Glucose concentration t=240” value ([4]; [Ab] 0,5 µg/mL) was 78. For the same substance, the dC/dT ([4]; [Ab] 0,5 µg/mL) was 19, the “F=the rate of change” value ([4]; [Ab] 0,25 µg/mL) was 66% and the “Glucose concentration t=0” value ([4]; [Ab] 0,25 µg/mL) was 143. The “Glucose concentration t=60” value ([4]; [Ab] 0,25 µg/mL) was 146, the “Glucose concentration t=120” value ([4]; [Ab] 0,25 µg/mL) was 140 and the “Glucose concentration t=180” value ([4]; [Ab] 0,25 µg/mL) was 102. For the same substance, the “Glucose concentration t=240” value ([4]; [Ab] 0,25 µg/mL) was 55, the dC/dT ([4]; [Ab] 0,25 µg/mL) was 22 and the “F=the rate of change” value ([4]; [Ab] 1 µg/mL) was 30%. For the same substance, the “Glucose concentration t=0” value ([4]; [Ab] 1 µg/mL) was 137, the “Glucose concentration t=60” value ([4]; [Ab] 1 µg/mL) was 154 and the “Glucose concentration t=120” value ([4]; [Ab] 1 µg/mL) was 146. For the same substance, the “Glucose concentration t=180” value ([4]; [Ab] 1 µg/mL) was 134, the “Glucose concentration t=240” value ([4]; [Ab] 1 µg/mL) was 119 and the dC/dT ([4]; [Ab] 1 µg/mL) was 10. The “F=the rate of change” value ([4]; [Ab] 2 µg/mL) was 12%, the “Glucose concentration t=0” value ([4]; [Ab] 2 µg/mL) was 144 and the “Glucose concentration t=60” value ([4]; [Ab] 2 µg/mL) was 154. For the same substance, the “Glucose concentration t=180” value ([4]; [Ab] 2 µg/mL) was 146, the “Glucose concentration t=240” value ([4]; [Ab] 2 µg/mL) was 148 and the dC/dT ([4]; [Ab] 2 µg/mL) was 4. For the same substance, the “F=the rate of change” value ([4]; [Ab] 4 µg/mL) was 10%, the “Glucose concentration t=60” value ([4]; [Ab] 4 µg/mL) was 157 and the “Glucose concentration t=120” value ([4]; [Ab] 4 µg/mL) was 147. For the same substance, the “Glucose concentration t=180” value ([4]; [Ab] 4 µg/mL) was 150, the “Glucose concentration t=240” value ([4]; [Ab] 4 µg/mL) was 149 and the dC/dT ([4]; [Ab] 4 µg/mL) was 4. The “F=the rate of change” value ([4]; [Ab] 8 µg/mL) was 0%, the “Glucose concentration t=0” value ([4]; [Ab] 8 µg/mL) was 142 and the “Glucose concentration t=60” value ([4]; [Ab] 8 µg/mL) was 154. For the same substance, the “Glucose concentration t=120” value ([4]; [Ab] 8 µg/mL) was 150, the “Glucose concentration t=180” value ([4]; [Ab] 8 µg/mL) was 154 and the “Glucose concentration t=240” value ([4]; [Ab] 8 µg/mL) was 140. The dC/dT ([4]; [Ab] 8 µg/mL) was 0, the “F=the rate of change” value ([4]; [Ab] 16 µg/mL) was 0% and the “Glucose concentration t=0” value ([4]; [Ab] 16 µg/mL) was 139. The “Glucose concentration t=60” value ([4]; [Ab] 16 µg/mL) was 145, the “Glucose concentration t=120” value ([4]; [Ab] 16 µg/mL) was 150 and the “Glucose concentration t=180” value ([4]; [Ab] 16 µg/mL) was 145. The “Glucose concentration t=240” value ([4]; [Ab] 16 µg/mL) was 145, the dC/dT ([4]; [Ab] 16 µg/mL) was 0 and the “F=the rate of change” value ([4]; [Ab] 32 µg/mL) was 3%. For the same substance, the “Glucose concentration t=0” value ([4]; [Ab] 32 µg/mL) was 144, the “Glucose concentration t=60” value ([4]; [Ab] 32 µg/mL) was 148 and the “Glucose concentration t=120” value ([4]; [Ab] 32 µg/mL) was 145. The “Glucose concentration t=180” value ([4]; [Ab] 32 µg/mL) was 146, the “Glucose concentration t=240” value ([4]; [Ab] 32 µg/mL) was 145 and the dC/dT ([4]; [Ab] 32 µg/mL) was 1. For the same substance, the “MIC EUCAST, range in parentheses” value [5, 9] was 4 to 16 µg/mL, the “MIC EUCAST” value [5, 10] was 8 µg/mL and the “MIC EUCAST, range in parentheses” value [6, 9] was 0.25 to 1 µg/mL. The “MIC EUCAST” value [6, 10] was 0.5 µg/mL, the Qualitative susceptibility score (E. coli ATCC 25922 [7]; E. coli ATCC 25922, 256 µg/mL, from positive BC-bottles, within 2 hours, Table 7) was “susceptible” and the “Glucose concentration t=0” value (E. coli ATCC 25922 [7]; [Ab] 256 µg/mL, t=0) was 145. The “Glucose concentration t=45” value (E. coli ATCC 25922 [7]; [Ab] 256 µg/mL, t=45) was 155, the “Glucose concentration t=60” value (E. coli ATCC 25922 [7]; [Ab] 256 µg/mL, t=60) was 151 and the “Glucose concentration t=90” value (E. coli ATCC 25922 [7]; [Ab] 256 µg/mL, t=90) was 140. For the same substance, the “Glucose concentration t=105” value (E. coli ATCC 25922 [7]; [Ab] 256 µg/mL, t=105) was 135, the “MIC EUCAST, range in parentheses” value [8, 9] was 0.125 to 1 µg/mL and the “MIC EUCAST” value [8, 10] was 0.25 to 0.5 µg/mL.

From EP3717657B1, “A SYSTEM FOR ASSESSING MICROBIAL SUSCEPTIBILITY TO ANTIBIOTIC AGENTS” (Ascilion AB, priority 2017, dated 2019)
